What was measured:
[1] = system: rice; experiment: Test C flooded paddy test; assay type: in vivo, Oryza sativa; settings: Flood
How it was run: (§1)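 Ratings were visual and made relative to untreated controls after 13 to 15 greenhouse days.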

[2] = system: eastern black nightshade; experiment: Test C pre-/postemergence test; assay type: in vivo, Solanum ptycanthum; settings: for Plant response rating, Nightshade: 31 g ai/ha, scale 0 to 100 (0 no effect, 100 complete control)
How it was run: (§2)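 Compounds in a non-phytotoxic solvent with surfactant applied preemergence to seeded pots and, at the same time, postemergence to plants 2–18 cm tall (1- to 4-leaf stage). Paddy tests: pots flooded to 3 cm, compound applied into the water, depth held throughout.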

[3] = system: barnyardgrass; experiment: Test C flooded paddy test; assay type: in vivo, Echinochloa crus-galli; settings: Flood
How it was run: as §1

[4] = system: wild oat; experiment: Test C pre-/postemergence test; assay type: in vivo, Avena fatua; settings: for Plant response rating, Oat, Wild: 31 g ai/ha, scale 0 to 100 (0 no effect, 100 complete control)
How it was run: as §2

[5] = system: lambsquarters; experiment: Test C pre-/postemergence test; assay type: in vivo, Chenopodium album; settings: for Plant response rating, Lambsquarters: 31 g ai/ha, scale 0 to 100 (0 no effect, 100 complete control)
How it was run: as §2

[6] = system: duck salad; experiment: Test C flooded paddy test; assay type: in vivo, Heteranthera limosa; settings: Flood
How it was run: as §1

[7] = system: corn; experiment: Test A pre-/postemergence greenhouse test; assay type: in vivo, Zea mays; settings: for Plant response rating, Corn: 0 to 100 scale where 0 is no effect and 100 is complete control; for Corn plant response rating: 0 to 100 scale
How it was run: (§3)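 Planting was into mixed loam soil and sand; preemergence treatment followed as a directed soil spray. Concurrently, emerged plants (one- to two-leaf, 2–10 cm) received postemergence applications of identically formulated compound (non-phytotoxic solvent, surfactant). After approximately ten days under greenhouse conditions, injury was judged by eye against untreated plants.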

[8] = system: velvetleaf; experiment: Test A pre-/postemergence greenhouse test; assay type: in vivo, Abutilon theophrasti; settings: for Plant response rating, Velvetleaf: 0 to 100 scale where 0 is no effect and 100 is complete control; for Velvetleaf plant response rating: 0 to 100 scale
How it was run: as §3

[9] = system: johnsongrass; experiment: Test C pre-/postemergence test; assay type: in vivo, Sorghum halepense; settings: for Plant response rating, Johnsongrass: 31 g ai/ha, scale 0 to 100 (0 no effect, 100 complete control)
How it was run: as §2

[10] = system: velvetleaf; experiment: Test C pre-/postemergence test; assay type: in vivo, Abutilon theophrasti; settings: for Plant response rating, Velvetleaf: 31 g ai/ha, scale 0 to 100 (0 no effect, 100 complete control)
How it was run: as §2

[11] = system: bermudagrass; experiment: Test C pre-/postemergence test; assay type: in vivo, Cynodon dactylon; settings: for Plant response rating, Bermudagrass: 31 g ai/ha
How it was run: as §2

[12] = system: Surinam grass; experiment: Test C pre-/postemergence test; assay type: in vivo, Brachiaria decumbens; settings: for Plant response rating, Surinam Grass: 31 g ai/ha, scale 0 to 100 (0 no effect, 100 complete control)
How it was run: as §2

[13] = system: redroot pigweed; experiment: Test A pre-/postemergence greenhouse test; assay type: in vivo, Amaranthus retroflexus; settings: for Plant response rating, Pigweed: 0 to 100 scale where 0 is no effect and 100 is complete control; for Pigweed plant response rating: 0 to 100 scale
How it was run: as §3

[14] = system: wheat; experiment: Test A pre-/postemergence greenhouse test; assay type: in vivo, Triticum aestivum; settings: for Plant response rating, Wheat: 0 to 100 scale where 0 is no effect and 100 is complete control; for Wheat plant response rating: 0 to 100 scale
How it was run: as §3

[15] = system: Goosegrass; experiment: Test C pre-/postemergence test; assay type: in vivo, Eleusin indica; settings: for Plant response rating, Goosegrass: 31 g ai/ha, scale 0 to 100 (0 no effect, 100 complete control)
How it was run: as §2

[16] = system: giant foxtail; experiment: Test C pre-/postemergence test; assay type: in vivo, Setaria faberii; settings: for Plant response rating, Foxtail, Giant: 31 g ai/ha, scale 0 to 100 (0 no effect, 100 complete control)
How it was run: as §2

[17] = system: giant foxtail; experiment: Test A pre-/postemergence greenhouse test; assay type: in vivo, Setaria faberi; settings: for Plant response rating, Foxtail, Giant: 0 to 100 scale where 0 is no effect and 100 is complete control; for Foxtail, Giant plant response rating: 0 to 100 scale
How it was run: as §3

[18] = system: common ragweed; experiment: Test C pre-/postemergence test; assay type: in vivo, Ambrosia elation; settings: for Plant response rating, Ragweed: 31 g ai/ha, scale 0 to 100 (0 no effect, 100 complete control)
How it was run: as §2

[19] = 62 g ai/ha, scale 0 to 100 (0 no effect, 100 complete control)
[20] = 250 g ai/ha, scale 0 to 100, 0 no effect, 100 complete control, 13 to 15 days
[21] = 62 g ai/ha, Preemergence, scale 0 to 100
[22] = 125 g ai/ha, preemergence, scale 0 (no effect) to 100 (complete control)
[23] = preemergence, 250 g ai/ha, scale 0 (no effect) to 100 (complete control)
[24] = Postemergence, 500 g ai/ha, 0 is no effect, 100 is complete control
[25] = Preemergence, 125 g ai/ha, 0 no effect, 100 complete control
[26] = 62 g ai/ha, Preemergence, scale 0 to 100 (0 no effect, 100 complete control)
[27] = Preemergence, scale 0 to 100 (0 no effect, 100 complete control)
[28] = 31 g ai/ha, scale 0 to 100 (0 no effect, 100 complete control)
[29] = 62 g ai/ha, scale 0 to 100, 0 no effect, 100 complete control, 13 to 15 days
[30] = 125 g ai/ha, scale 0 to 100, 0 no effect, 100 complete control, 13 to 15 days
[31] = Postemergence, 125 g ai/ha, 0 is no effect, 100 is complete control

Cn1nc(C(F)(F)F)c(CS(=O)(=O)c2cccc[n+]2[O-])c1OCC(F)F [Compound 81]
Plant response rating, Rice [1, 19]: 0
Plant response rating, Rice [1, 20]: 0
Nightshade plant response rating [2, 21]: 70
Nightshade plant response rating [2, 22]: 90
Plant response rating, Nightshade ([2]; Preemergence): 0
Nightshade plant response rating [2, 23]: 90
Plant response rating, Barnyardgrass [3, 19]: 0
Plant response rating, Barnyardgrass [3, 20]: 0
Oat, Wild plant response rating [4, 21]: 60
Oat, Wild plant response rating [4, 22]: 95
Plant response rating, Oat, Wild ([4]; Preemergence): 0
Oat, Wild plant response rating [4, 23]: 95
Lambsquarters plant response rating [5, 21]: 100
Lambsquarters plant response rating [5, 22]: 100
Plant response rating, Lambsquarters ([5]; Preemergence): 80
Lambsquarters plant response rating [5, 23]: 100
Plant response rating, Ducksalad [6, 19]: 65
Plant response rating, Ducksalad [6, 20]: 75
Plant response rating, Corn ([7]; Postemergence, 125 g ai/ha): 0
Corn plant response rating [7, 24]: 50
Corn plant response rating [7, 25]: 30
Plant response rating, Corn ([7]; Preemergence, 500 g ai/ha): 70
Plant response rating, Velvetleaf ([8]; Postemergence, 125 g ai/ha): 10
Velvetleaf plant response rating [8, 24]: 70
Velvetleaf plant response rating [8, 25]: 10
Plant response rating, Velvetleaf ([8]; Preemergence, 500 g ai/ha): 100
Johnsongrass plant response rating [9, 21]: 95
Johnsongrass plant response rating [9, 22]: 100
Plant response rating, Johnsongrass ([9]; Preemergence): 95
Johnsongrass plant response rating [9, 23]: 100
Velvetleaf plant response rating [10, 21]: 45
Velvetleaf plant response rating [10, 22]: 70
Plant response rating, Velvetleaf ([10]; Preemergence): 0
Velvetleaf plant response rating [10, 23]: 85
Bermudagrass plant response rating [11, 26]: 100
Bermudagrass plant response rating [11, 22]: 100
Plant response rating, Bermudagrass [11, 27]: 80
Bermudagrass plant response rating [11, 23]: 100
Surinam Grass plant response rating [12, 21]: 80
Surinam Grass plant response rating [12, 22]: 100
Plant response rating, Surinam Grass ([12]; Preemergence): 70
Surinam Grass plant response rating [12, 23]: 100
Plant response rating, Pigweed ([13]; Postemergence, 125 g ai/ha): 40
Pigweed plant response rating [13, 24]: 70
Pigweed plant response rating [13, 25]: 90
Plant response rating, Pigweed ([13]; Preemergence, 500 g ai/ha): 100
Plant response rating, Wheat ([14]; Postemergence, 125 g ai/ha): 20
Wheat plant response rating [14, 24]: 60
Wheat plant response rating [14, 25]: 10
Plant response rating, Wheat ([14]; Preemergence, 500 g ai/ha): 80
Goosegrass plant response rating [15, 21]: 98
Goosegrass plant response rating [15, 22]: 100
Plant response rating, Goosegrass ([15]; Preemergence): 55
Goosegrass plant response rating [15, 23]: 100
Foxtail, Giant plant response rating [16, 21]: 98
Foxtail, Giant plant response rating [16, 22]: 100
Plant response rating, Foxtail, Giant ([16]; Preemergence): 80
Foxtail, Giant plant response rating [16, 23]: 100
Plant response rating, Foxtail, Giant ([17]; Postemergence, 125 g ai/ha): 80
Foxtail, Giant plant response rating [17, 24]: 80
Foxtail, Giant plant response rating [17, 25]: 90
Plant response rating, Foxtail, Giant ([17]; Preemergence, 500 g ai/ha): 100
Ragweed plant response rating [18, 21]: 80
Ragweed plant response rating [18, 22]: 100
Plant response rating, Ragweed ([18]; Preemergence): 0
Ragweed plant response rating [18, 23]: 100

Cn1nc(C(F)(F)F)c(C(Cl)S(=O)(=O)c2cccc[n+]2[O-])c1OCC(F)(F)F (racemic) [Compound 36]
Plant response rating, Rice [1, 28]: 0
Plant response rating, Rice [1, 29]: 25
Plant response rating, Rice [1, 30]: 60
Plant response rating, Rice [1, 20]: 75
Nightshade plant response rating [2, 21]: 70
Nightshade plant response rating [2, 22]: 80
Plant response rating, Nightshade ([2]; Preemergence): 70
Nightshade plant response rating [2, 23]: 80
Plant response rating, Barnyardgrass [3, 28]: 0
Plant response rating, Barnyardgrass [3, 29]: 10
Plant response rating, Barnyardgrass [3, 30]: 25
Plant response rating, Barnyardgrass [3, 20]: 90
Oat, Wild plant response rating [4, 21]: 30
Oat, Wild plant response rating [4, 22]: 40
Plant response rating, Oat, Wild ([4]; Preemergence): 25
Oat, Wild plant response rating [4, 23]: 80
Lambsquarters plant response rating [5, 21]: 60
Lambsquarters plant response rating [5, 22]: 80
Plant response rating, Lambsquarters ([5]; Preemergence): 0
Lambsquarters plant response rating [5, 23]: 95
Plant response rating, Ducksalad [6, 28]: 85
Plant response rating, Ducksalad [6, 29]: 85
Plant response rating, Ducksalad [6, 30]: 90
Plant response rating, Ducksalad [6, 20]: 90
Corn plant response rating [7, 31]: 0
Corn plant response rating [7, 24]: 0
Corn plant response rating [7, 25]: 0
Plant response rating, Corn ([7]; Preemergence, 500 g ai/ha): 0
Velvetleaf plant response rating [8, 31]: 0
Velvetleaf plant response rating [8, 24]: 40
Velvetleaf plant response rating [8, 25]: 40
Plant response rating, Velvetleaf ([8]; Preemergence, 500 g ai/ha): 70
Johnsongrass plant response rating [9, 21]: 80
Johnsongrass plant response rating [9, 22]: 90
Plant response rating, Johnsongrass ([9]; Preemergence): 60
Johnsongrass plant response rating [9, 23]: 90
Velvetleaf plant response rating [10, 21]: 0
Velvetleaf plant response rating [10, 22]: 40
Plant response rating, Velvetleaf ([10]; Preemergence): 0
Velvetleaf plant response rating [10, 23]: 70
Bermudagrass plant response rating [11, 26]: 100
Bermudagrass plant response rating [11, 22]: 100
Plant response rating, Bermudagrass [11, 27]: 85
Bermudagrass plant response rating [11, 23]: 100
Surinam Grass plant response rating [12, 21]: 80
Surinam Grass plant response rating [12, 22]: 100
Plant response rating, Surinam Grass ([12]; Preemergence): 50
Surinam Grass plant response rating [12, 23]: 100
Pigweed plant response rating [13, 31]: 10
Pigweed plant response rating [13, 24]: 60
Pigweed plant response rating [13, 25]: 100
Plant response rating, Pigweed ([13]; Preemergence, 500 g ai/ha): 100
Wheat plant response rating [14, 31]: 0
Wheat plant response rating [14, 24]: 50
Wheat plant response rating [14, 25]: 20
Plant response rating, Wheat ([14]; Preemergence, 500 g ai/ha): 60
Goosegrass plant response rating [15, 21]: 100
Goosegrass plant response rating [15, 22]: 100
Plant response rating, Goosegrass ([15]; Preemergence): 85
Goosegrass plant response rating [15, 23]: 100
Foxtail, Giant plant response rating [16, 21]: 50
Foxtail, Giant plant response rating [16, 22]: 100
Plant response rating, Foxtail, Giant ([16]; Preemergence): 30
Foxtail, Giant plant response rating [16, 23]: 100
Foxtail, Giant plant response rating [17, 31]: 40
Foxtail, Giant plant response rating [17, 24]: 70
Foxtail, Giant plant response rating [17, 25]: 100
Plant response rating, Foxtail, Giant ([17]; Preemergence, 500 g ai/ha): 100
Ragweed plant response rating [18, 21]: 0
Ragweed plant response rating [18, 22]: 10
Plant response rating, Ragweed ([18]; Preemergence): 0
Ragweed plant response rating [18, 23]: 50

— patent US20100298141A1, “SUBSTITUTED PYRIDINE N-OXIDE HERBICIDES” (E. I. DU PONT DE NEMOURS AND COMPANY, priority 2007, published 2010)
